Data taken from patent US9574239B2, “MicroRNA signatures in human ovarian cancer” (The Ohio State University Research Foundation, priority 2007, dated 2017).

Key:
Type in all cases: cell-based, human
OVCAR3 cells [1] = test: Real-Time PCR of miR expression levels in OVCAR3 cells after demethylating treatment; conditions: OVCAR3, before vs after treatment; FIG. 5C
Description: Relative expression was calculated using the comparative Ct method.

OVCAR3 cells [2] = test: miR expression by microarray profiling of OVCAR3 cells before and after demethylating treatment; conditions: 10 μM, 24 h
Description: Total RNA isolation was performed with Trizol (Invitrogen, Carlsbad, Calif.) according to the manufacturer's instructions. RNA labeling and hybridization on microRNA microarray chips were performed as previously described (28) using 5 μg of total RNA from each sample. Hybridization was carried out on our microRNA microarray (Ohio State Comprehensive Cancer Center, version 2.0), which contains probes for 460 mature microRNAs spotted in quadruplicate (235 homo sapiens, 222 mus musculus, and three Arabidopsis thaliana) with annotated active sites. Often, more than one probe set exists for a given mature microRNA. Additionally, there are quadruplicate probes corresponding to most precursor microRNAs. Hybridization signals were detected with Streptavidin-Alexa647 conjugate and scanned images (Axon 4000B) were quantified using the Genepix 6.0 software (Axon Instruments, Sunnyvale, Calif.).
Microarray images were analyzed by using GENEPIX PRO. Average values of the replicate spots of each miRNA were background subtracted, normalized, and subjected to further analysis. We performed a global median normalization of Ovary microarray data by using BRB ArrayTools developed by Richard Simon & Amy Peng Lam (29). Absent calls were thresholded to 4.5 before subsequent statistical analysis. This level is the average minimum intensity level detected in the experiments. miRNA nomenclature was according to the Genome Browser (genome.ucsc.edu) and the miRNA database at Sanger Center (microrna.sanger.ac.uk/); in case of discrepancies the miRNA database was followed. Differentially expressed miRNAs were identified by using the t test procedure within significance analysis of microarrays (SAM), a method developed at Stanford University Labs based on recent paper of Tusher, Tibshirani and Chu (30).
OVCAR3 cells were seeded at low density 48 h before treatment with 10 μM 5′aza-2′deoxycytidine (5′-AZA, Sigma). After 24 h of treatment, cells were collected and total RNA was isolated using Trizol reagent (Invitrogen). 3 replicates for both untreated cells and AZA-treated cells were used to evaluate the miR expression by Microarray profiling. Differentially expressed microRNAs were identified by using univariate two-classes T-test with random variance model.

OVCAR3 cells [3] = test: Northern blot of miR-21 in OVCAR3 cells after demethylating treatment; conditions: OVCAR3, before vs after treatment; FIG. 5D
Description: Northern blot analysis was performed as previously described. RNA samples (10 μg each) were run on 15% Polyacrylamide, 7M Urea Criterion pre-casted gels (Bio-Rad, Hercules, Calif.) and transferred onto Hybond-N+ membranes (Amersham, Piscataway, N.J.). The hybridization was performed at 370 C in ULTRAhyb-Oligo hybrization buffer (Ambion, Austin, Tex.) for 16 hours. Membranes were washed at 370 C, twice with 2×SSPE and 0.5% SDS. 5S RNA or EtBr gel staining were used to normalize 200 ng of each probe was end labeled with 100 μCi [gamma-32P]-ATP using the polynucleotide kinase (Roche). Blots were stripped in boiling 0.1% SDS for 10 minutes before re-hybridization. OVCAR3 cells were seeded at low density 48 h before treatment with 10 μM 5′aza-2′deoxycytidine (5′-AZA, Sigma). After 24 h of treatment, cells were collected and total RNA was isolated using Trizol reagent (Invitrogen).

[4] = OVCAR3, before vs after treatment, p<0.001

Nc1ncn([C@H]2C[C@H](O)[C@@H](CO)O2)c(=O)n1 [5-aza-2′-deoxycytidine]
expression levels of the 5 most significantly induced miRs (Real-Time PCR) (OVCAR3 cells [1]): up-modulation
expression of miR-21, miR-203, miR-146b, miR-205, miR-30-5p and miR-30c (OVCAR3 cells [2]; OVCAR3, before vs after treatment): most significant induced upon treatment
human microRNAs differentially expressed (number) (OVCAR3 cells [2]; [4]): 11
human microRNAs down-modulated (number) (OVCAR3 cells [2]; [4]): 2
human microRNAs up-modulated (number) (OVCAR3 cells [2]; [4]): 9
levels of miR-21, miR-203 and miR-205 after demethylating treatment (OVCAR3 cells [2]; OVCAR3 cells): significantly increased
miR-21 expression (Northern Blot, normalized with EtBr gel staining) (OVCAR3 cells [3]): up-modulation
